Counter-ions that a name gives are not always drawn.
System: HCT116
Details: 72 h
Procedure, shortened: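 For IC50 and maximal efficacy, four-parameter Hill fits were used. Input values were CellTiter-Glo luminescence from HCT116 cells seeded at 250 per well in 1536-well plates, normalized to vehicle (0%) and positive control (-100%). Pattern correction followed normalization.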

Row | IC50 cell viability (ICRF193 0 nM) [µM] | IC50 cell viability (ICRF193 200 nM) [µM] | SMILES
1 | > 45.8 | > 45.8 | CC(Oc1c(Cl)cccc1Cl)C1=NCCN1 (configuration not stated) [Lofexidine]
2 | > 45.8 | > 45.8 | CN1C[C@@H]2C[C@H]1CN2c1cc2c(cc1F)c(=O)c(C(=O)O)cn2C1CC1 [Danofloxacin]
3 | > 45.8 | > 45.8 | N#C[C@@H]1C[C@@H]2C[C@@H]2N1C(=O)[C@@H](N)C12CC3CC(CC(O)(C3)C1)C2 [Saxagliptin]
4 | > 45.8 | > 45.8 | NNC(=O)c1ccncc1 [Isoniazid]
5 | > 45.8 | > 45.8 | C[N+](C)(C)CCOC(N)=O [Carbachol]
6 | > 45.8 | > 45.8 | Cc1cccc(C)c1NC(=O)CC12CCCN1CCC2 [Pilsicainide]
7 | > 45.8 | > 45.8 | CO[C@H]1O[C@@H]2O[C@@]3(C)CC[C@H]4[C@H](C)CC[C@@H]([C@H]1C)[C@@]24OO3 [Artemether]
8 | > 45.8 | > 45.8 | CC[N+](CC)(CC(=O)Nc1c(C)cccc1C)Cc1ccccc1 [Denatonium benzoate]
9 | > 45.8 | > 45.8 | Nc1ccn([C@@H]2O[C@H](CO)[C@@H](O)[C@H]2O)c(=O)n1 [CYTIDINE]
10 | > 45.8 | > 45.8 | CC(Oc1ccccc1)C(=O)N[C@@H]1C(=O)N2[C@@H]1SC(C)(C)[C@@H]2C(=O)O (some centres not stated) [Phenethicillin potassium salt]
11 | > 45.8 | > 45.8 | Nc1nc(=O)n([C@@H]2CS[C@H](CO)O2)cc1F [Emtricitabine]
12 | > 45.8 | > 45.8 | COc1ccc(CNc2nc(N3CCC[C@H]3CO)ncc2C(=O)NCc2ncccn2)cc1Cl [Avanafil]
13 | > 45.8 | > 45.8 | Nc1ccc(S(=O)(=O)Nc2ccc(Cl)nn2)cc1 [Sulfachloropyridazine]
14 | > 45.8 | > 45.8 | CN1C(CSCC(F)(F)F)Nc2cc(Cl)c(S(N)(=O)=O)cc2S1(=O)=O (configuration not stated) [Polythiazide]
15 | > 45.8 | > 45.8 | CC(C)OC(=O)OCOP(=O)(CO[C@H](C)Cn1cnc2c(N)ncnc21)OCOC(=O)OC(C)C [Tenofovir disoproxil fumarate]
16 | > 45.8 | > 45.8 | CC1CCN(CCCC(=O)c2ccc(F)cc2)CC1 [Methylperone]
17 | > 45.8 | > 45.8 | CN1CCc2nc(C(=O)N[C@@H]3C[C@@H](C(=O)N(C)C)CC[C@@H]3NC(=O)C(=O)Nc3ccc(Cl)cn3)sc2C1 [Edoxaban tosylate monohydrate]
18 | > 45.8 | > 45.8 | Cc1cnc(C(=O)NCCc2ccc(S(=O)(=O)NC(=O)NC3CCCCC3)cc2)cn1 [Glipizide]
19 | > 45.8 | > 45.8 | Cc1cc(C(C)(C)C)c(O)c(C)c1CC1=NCCN1 [Oxymetazoline hydrochloride]
20 | > 45.8 | > 45.8 | COCC1=C(C(=O)O)N2C(=O)[C@@H](NC(=O)/C(=N\OC)c3csc(N)n3)[C@H]2SC1 [CEFPODOXIME]

Row | IC50 cell viability (ICRF193 0 nM) [µM] | IC50 cell viability (ICRF193 200 nM) [µM] | SMILES
21 | > 45.8 | > 45.8 | COc1c(N2C[C@@H]3CCCN[C@@H]3C2)c(F)cc2c(=O)c(C(=O)O)cn(C3CC3)c12 [Moxifloxacin (Hydrochloride)]
22 | > 45.8 | > 45.8 | Cc1cccc(N(C)C(=S)Oc2ccc3c(c2)CCC3)c1 [Tolindate]
23 | > 45.8 | > 45.8 | Nc1ccc(S(N)(=O)=O)cc1 [Sulfanilamide]
24 | > 45.8 | > 45.8 | C=CCOc1cc(Cl)ccc1C(=O)NCCN(CC)CC [Alloclamide]
25 | > 45.8 | > 45.8 | CSCC[C@H](N)C(=O)O [L-Methionine]
26 | > 45.8 | > 45.8 | CN(C)CCCOC1(Cc2ccccc2)CCCCCC1 [Bencyclane]
27 | > 45.8 | > 45.8 | CC[C@H](C)[C@H](N)C1=N[C@H](C(=O)N[C@@H](CC(C)C)C(=O)N[C@H](CCC(=O)O)C(=O)N[C@H](C(=O)N[C@H]2CCCCNC(=O)[C@H](CC(N)=O)NC(=O)[C@@H](CC(=O)O)NC(=O)[C@H](Cc3cnc[nH]3)NC(=O)[C@@H](Cc3ccccc3)NC(=O)[C@H]([C@@H](C)CC)NC(=O)[C@@H](CCCN)NC2=O)[C@@H](C)CC)CS1 [Bacitracin]
28 | > 45.8 | > 45.8 | COc1ccc2c3c1O[C@H]1C[C@@H](O)C=C[C@@]31CCN(C)C2 [Galanthamine]
29 | > 45.8 | > 45.8 | CC1=C(/C=C/C(C)=C/C=C/C(C)=C\C(=O)O)C(C)(C)CCC1 [Isotretinoin]
30 | > 45.8 | > 45.8 | Nc1nnc(-c2cccc(Cl)c2Cl)c(N)n1 [Lamotrigine]
31 | > 45.8 | > 45.8 | CCn1c(=O)c2c(nc(/C=C/c3ccc(OC)c(OC)c3)n2C)n(CC)c1=O [Istradefylline]
32 | > 45.8 | > 45.8 | COc1ccccc1O [Guaiacol]
33 | > 45.8 | > 45.8 | O=[N+]([O-])c1ccc(/C=N/O)o1 [Nifuroxime]
34 | > 45.8 | > 45.8 | CN(C)CCC(c1ccc(Br)cc1)c1ccccn1 (configuration not stated) [Brompheniramine (maleate)]
35 | > 45.8 | > 45.8 | CC(=O)N(CC(O)CO)c1c(I)c(C(=O)NCCO)c(I)c(C(=O)NCC(O)CO)c1I (configuration not stated) [Ioxilan]
36 | > 45.8 | > 45.8 | CN(C)/C=N/c1c(I)cc(I)c(CCC(=O)O)c1I [Ipodate sodium]
37 | > 45.8 | > 45.8 | CCCCN(CCN(CCCC)C(=O)N1CCOCC1)C(=O)N1CCOCC1 [Dimorpholamine]
38 | > 45.8 | > 45.8 | CCOC(=O)[C@@H](N)CS [L-Cysteine ethyl ester hydrochloride]
39 | > 45.8 | > 45.8 | CCn1cc(C(=O)O)c(=O)c2ccc(C)nc21 [Nalidixic acid]

Row | SMILES | IC50 cell viability (ICRF193 0 nM) [µM] | IC50 cell viability (ICRF193 200 nM) [µM]
40 | CCOP(=O)(OCC)C(C)NC(=O)N(CCCl)N=O (configuration not stated) [Fotemustine] | > 45.8 | > 45.8
41 | O=c1[nH]c2ccccc2n1CCCN1CCC(n2c(=O)[nH]c3cc(Cl)ccc32)CC1 [Domperidone] | > 45.8 | > 45.8
42 | CC(C)(O)C(Cl)(Cl)Cl [1,1,1-Trichloro-2-methyl-2-propanol] | > 45.8 | > 45.8
43 | CC(O)(CS(=O)(=O)c1ccc(F)cc1)C(=O)Nc1ccc(C#N)c(C(F)(F)F)c1 (configuration not stated) [BICALUTAMIDE] | > 45.8 | > 45.8
44 | CCOC(=O)C1(c2ccccc2)CCN(CCc2ccc(N)cc2)CC1 [Anileridine] | > 45.8 | > 45.8
45 | CC1COC2(c3ccccc3Cl)c3cc(Cl)ccc3NC(=O)CN12 (configuration not stated) [Mexazolam] | > 45.8 | > 45.8
46 | CC(C)(O)[C@@H]1[C@H]2OC(=O)[C@@H]1[C@]1(O)C[C@H]3O[C@]34C(=O)O[C@H]2[C@]14C [PICROTIN] | > 45.8 | > 45.8

Reference: the supplement of paper PMC12137928
